PubChem BioAssay AID651886 (Southern Research Specialized Biocontainment Screening …, 2012)
Activity calls are given as the source filed them. The rule behind the calls is not given here.

What follows are molecules tested on VEEV TC-83 infected cells, virus titer reduction (assay: Secondary screen, VEEV TC 83 strain infected cells, log virus titer change, 5 µm (AID 651886)). Conditions: at 5 µM; active compounds read low.
With `CN1CCN(C)C(=Nc2ccc([N+](=O)[O-])cc2C(=O)Nc2ccccc2F)C1` the log virus titer change was -3.8.
`O=c1c2cc([N+](=O)[O-])ccc2nc(CN2CCCCC2)n1-c1ccccc1F` was tested, and the log virus titer change was -0.366 (inactive).
Molecule `CCN1CCN(Cc2nc3ccc([N+](=O)[O-])cc3c(=O)n2-c2ccccc2F)CC1` has a log virus titer change of -2.06.
Molecule `CN1CCN(C)C(=Nc2ccc(C#N)cc2C(=O)Nc2cccc(F)c2)C1` has a log virus titer change of -1.43.
`CN1CCN(C)C(=Nc2ccc([N+](=O)[O-])cc2C(=O)Nc2ccccc2)C1` was tested, and the log virus titer change was under -7.2.
Work on `O=c1c2cc([N+](=O)[O-])ccc2nc(CN2CCNCC2)n1-c1ccccc1F` yielded a log virus titer change of under -7.76.
`CCN1CCN(C)CC1=Nc1ccc([N+](=O)[O-])cc1C(=O)Nc1ccccc1` was tested, and the log virus titer change was under -7.2.
`CCN1CCN(Cc2nc3ccc([N+](=O)[O-])cc3c(=O)n2-c2ccccc2)CC1` gave a log virus titer change of under -7.54.
In the case of `CCN1CCN(Cc2nc3ccc(I)cc3c(=O)n2-c2ccccc2)CC1`, the log virus titer change is reported as -0.33 (inactive).
Work on `CCN1CCN(Cc2nc3ccc([N+](=O)[O-])cc3c(=O)n2-c2cccc(F)c2)CC1` yielded a log virus titer change of -7.11.
With `CN1CCN(Cc2nc3ccc([N+](=O)[O-])cc3c(=O)n2-c2ccccc2F)CC1` the log virus titer change was under -7.76.
With `CCN1CCN(Cc2nc3ccc([N+](=O)[O-])cc3c(=O)n2-c2ccc(F)cc2)CC1` the log virus titer change was -5.88.
`COc1ccc(NC(=O)c2cc([N+](=O)[O-])ccc2N=C2CN(C)CCN2C)cc1` showed a log virus titer change of under -7.2.
`O=c1c2cc([N+](=O)[O-])ccc2nc(CN2CCNCC2)n1-c1ccccc1` gave a log virus titer change of under -7.76.
`CCN1CCN(Cc2nc3ccc(C#N)cc3c(=O)n2-c2ccccc2)CC1` was tested, and the log virus titer change was -1.65.
`CN1CCN(C)C(=Nc2ccc(C#N)cc2C(=O)Nc2ccccc2)C1` showed a log virus titer change of -5.82.
